Source: patent US20240024520A1, “AUTONOMOUS KNOB DOMAIN PEPTIDES” (UCB BIOPHARMA SRL, priority 2020, published 2024)
Like-named read-outs stand apart in the source and are kept apart here. Bridge positions count the residues as written; N and C are the ends. Ends that are not written are not given here. Peptide text beside a SMILES is read from it. * marks the point of attachment. Palmitoyl = CCCCCCCCCCCCCCCC(=O)*

Key:
[1] = tested on: rabbit erythrocytes; assay: Alternative pathway haemolysis assay; type: cell-based; conditions: normal human sera; result in words
Method: (§1) Haemolysis assays: For AP, 50 μL of 24% normal human sera (Complement Technology), 50 of 20 mM MgEGTA (Complement Technology), and 48 μL of GVB0 buffer (0.1% gelatin, […], 145 mM NaCl, 0.025% NaN3, pH 7.3, Complement Technology) were aliquoted into a single well of a 96-well tissue culture plate (USA Scientific) then mixed with 2 μL of inhibitors serially diluted in DMSO. Following equilibration for 15 minutes at room temperature, 50 μL of rabbit erythrocytes (Complement Technology), at 2.5×10^7 per well, were added to the plates, which were then incubated at 37° C. for 30 minutes. Plates were centrifuged at 1,000×g for 3 min and 100 μL of supernatant was collected, transferred to another 96-well tissue culture treated plate, and absorbance was measured at 412 nm. For CP, […], 48 μL of GVB++ buffer (0.1% gelatin, 5 mM Veronal, 145 mM NaCl, 0.025% NaN3, pH 7.3 with 0.15 mM CaCl2 and 0.5 mM MgCl2, Complement Technology) and 2 μL of inhibitors serially diluted in DMSO were aliquoted into a single well and equilibrated as described. Next, 100 μL of antibody-sensitized sheep red blood cells (Complement Technology) at 5×10^7 per well were added to the plate, which was then incubated at 37° C. for 1 hour. Samples were subsequently processed as described.

[2] = tested on: Alternative pathway C5b deposition; assay: Alternative pathway C5b (neo-epitope) deposition ELISA, SVAR kit; type: biochemical, human; conditions: chemFE peptides, Example 10; result in words
Text: (§2) To elucidate the functional consequences of the knob domain peptides binding to human C5, we performed complement activation assays using the SVAR complement activation ELISA which measured CP (Classical Pathway) and AP (Alternative Pathway) activation in human serum, through formation of the C5b neo-epitope. We also developed orthogonal ELISA assays which measured total complement and AP specific mediated C3b and MAC (Membrane Attack Complex) deposition. For all activation conditions, we also tracked C5a release via ELISA.
(§3) For the C5b ELISA, assays were run using the CP and AP Complement functional ELISA kits (SVAR), as per the manufacturer's protocol. For sample preparation: serum was diluted as per the respective protocol for the CP and AP assays. Titrations of peptides were prepared and allowed to incubate for 15 minutes at room temperature, prior to plating.
(§4) Functional activity of chemically derived knob domain peptides was confirmed in a complement activation ELISAs which measured inhibition of C5b neoepitope deposition.
(§5) Finally, we tested our constructs in AP and CP complement activation ELISAs, which measured C5b neoepitope deposition.
(§6) Complement ELISA: assays were run using the CP and AP Complement functional ELISA kits (SVAR, COMPL 300 RUO), as per the manufacturer's protocol. For sample preparation, serum was diluted as per the respective protocol for the CP and AP assays; serial dilutions of peptides were prepared and allowed to incubate with serum for 15 minutes at room temperature, prior to plating.

[3] = tested on: Classical pathway C5b deposition; assay: Classical pathway C5b (neo-epitope) deposition ELISA, SVAR kit; type: biochemical, human; conditions: chemFE peptides, Example 10; result in words
Text: as §2, §3, §4, §5, §6

[4] = molecular target: C5 (Homo sapiens, UniProt P01031); assay: Biacore multi-cycle kinetics on human C5; type: binding; conditions: for mean stoichiometric ratio: measured Rmax divided by theoretical Rmax; for binding to human C5: chemical knob domains and variants, result in words
Sequence of C5 (P01031 19-1676): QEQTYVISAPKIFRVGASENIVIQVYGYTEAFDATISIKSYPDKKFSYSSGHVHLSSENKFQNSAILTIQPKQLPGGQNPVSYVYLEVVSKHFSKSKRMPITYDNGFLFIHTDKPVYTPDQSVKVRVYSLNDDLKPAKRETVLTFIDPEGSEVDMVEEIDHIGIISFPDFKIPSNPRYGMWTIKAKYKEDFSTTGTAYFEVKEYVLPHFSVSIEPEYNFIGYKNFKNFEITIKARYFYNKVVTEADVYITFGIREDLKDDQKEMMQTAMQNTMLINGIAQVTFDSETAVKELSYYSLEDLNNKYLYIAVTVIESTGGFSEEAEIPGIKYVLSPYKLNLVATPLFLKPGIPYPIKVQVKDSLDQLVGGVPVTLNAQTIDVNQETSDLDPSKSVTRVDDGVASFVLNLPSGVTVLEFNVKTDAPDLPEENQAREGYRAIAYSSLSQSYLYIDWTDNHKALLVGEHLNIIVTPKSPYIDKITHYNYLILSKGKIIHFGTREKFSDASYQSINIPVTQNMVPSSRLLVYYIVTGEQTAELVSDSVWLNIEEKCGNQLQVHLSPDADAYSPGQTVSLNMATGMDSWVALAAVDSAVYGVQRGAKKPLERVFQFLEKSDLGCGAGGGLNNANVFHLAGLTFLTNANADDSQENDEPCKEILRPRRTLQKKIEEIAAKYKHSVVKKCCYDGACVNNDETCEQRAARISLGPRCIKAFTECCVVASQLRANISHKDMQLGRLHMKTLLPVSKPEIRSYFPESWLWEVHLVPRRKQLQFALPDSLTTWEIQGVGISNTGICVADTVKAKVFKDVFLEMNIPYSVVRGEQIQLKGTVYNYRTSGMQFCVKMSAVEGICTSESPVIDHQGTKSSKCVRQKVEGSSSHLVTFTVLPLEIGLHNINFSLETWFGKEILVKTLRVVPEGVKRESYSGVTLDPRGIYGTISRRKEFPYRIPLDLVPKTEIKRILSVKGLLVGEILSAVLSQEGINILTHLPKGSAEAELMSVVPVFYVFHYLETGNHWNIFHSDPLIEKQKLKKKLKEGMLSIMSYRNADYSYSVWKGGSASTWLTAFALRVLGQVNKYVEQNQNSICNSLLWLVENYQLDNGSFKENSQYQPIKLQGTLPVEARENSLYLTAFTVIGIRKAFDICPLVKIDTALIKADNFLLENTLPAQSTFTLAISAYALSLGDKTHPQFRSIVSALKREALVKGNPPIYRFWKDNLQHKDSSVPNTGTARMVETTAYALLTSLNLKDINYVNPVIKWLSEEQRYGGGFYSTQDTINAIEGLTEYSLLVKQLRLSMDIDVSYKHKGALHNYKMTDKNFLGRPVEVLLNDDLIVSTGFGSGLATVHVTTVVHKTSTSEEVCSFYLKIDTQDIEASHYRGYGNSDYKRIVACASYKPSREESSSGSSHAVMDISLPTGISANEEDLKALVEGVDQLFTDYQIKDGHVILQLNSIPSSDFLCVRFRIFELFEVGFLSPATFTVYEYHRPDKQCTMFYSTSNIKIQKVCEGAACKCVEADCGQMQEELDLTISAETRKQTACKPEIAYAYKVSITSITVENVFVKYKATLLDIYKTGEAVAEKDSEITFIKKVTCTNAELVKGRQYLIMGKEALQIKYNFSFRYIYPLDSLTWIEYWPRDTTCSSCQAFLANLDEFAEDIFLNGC
Method: Binding of knob domain peptides to human C5 was measured by SPR, using a multi-cycle kinetics method as follows:
(§7) Kinetics were measured using a Biacore 8K (GE Healthcare) with a CM5 chip, which was prepared as follows: EDC/NHS was mixed at 1:1 ratio (flow rate, 10 μL/min; contact time, 30 seconds), human C5 protein at 1 μg/mL in pH 4.5 sodium-acetate buffer, were injected over flow cell one only (flow rate, 10 μL/min; contact time, 60 seconds). Final immobilization levels in the range of 2000-3000 response units (RU) were obtained, to yield theoretical Rmax values of ˜50-60 RU. Serial dilutions of peptide were prepared in HBS-EP buffer and injected (flow rate, 30 μL/min; contact time, 240 seconds; dissociation time, 6000 seconds). After each injection, the surface was regenerated with two sequential injections of 2M MgCl2 (flow rate, […]; contact time, 30 seconds). Binding to the reference surface was subtracted, and the data were fitted to a single site binding model, using Biacore evaluation software.

[5] = molecular target: rat C5 protein (Rattus norvegicus, UniProt P08650); assay: Biacore kinetics on rat C5 (cross-reactivity); type: binding; conditions: SPR
Sequence of rat C5 protein (P08650 19-1681): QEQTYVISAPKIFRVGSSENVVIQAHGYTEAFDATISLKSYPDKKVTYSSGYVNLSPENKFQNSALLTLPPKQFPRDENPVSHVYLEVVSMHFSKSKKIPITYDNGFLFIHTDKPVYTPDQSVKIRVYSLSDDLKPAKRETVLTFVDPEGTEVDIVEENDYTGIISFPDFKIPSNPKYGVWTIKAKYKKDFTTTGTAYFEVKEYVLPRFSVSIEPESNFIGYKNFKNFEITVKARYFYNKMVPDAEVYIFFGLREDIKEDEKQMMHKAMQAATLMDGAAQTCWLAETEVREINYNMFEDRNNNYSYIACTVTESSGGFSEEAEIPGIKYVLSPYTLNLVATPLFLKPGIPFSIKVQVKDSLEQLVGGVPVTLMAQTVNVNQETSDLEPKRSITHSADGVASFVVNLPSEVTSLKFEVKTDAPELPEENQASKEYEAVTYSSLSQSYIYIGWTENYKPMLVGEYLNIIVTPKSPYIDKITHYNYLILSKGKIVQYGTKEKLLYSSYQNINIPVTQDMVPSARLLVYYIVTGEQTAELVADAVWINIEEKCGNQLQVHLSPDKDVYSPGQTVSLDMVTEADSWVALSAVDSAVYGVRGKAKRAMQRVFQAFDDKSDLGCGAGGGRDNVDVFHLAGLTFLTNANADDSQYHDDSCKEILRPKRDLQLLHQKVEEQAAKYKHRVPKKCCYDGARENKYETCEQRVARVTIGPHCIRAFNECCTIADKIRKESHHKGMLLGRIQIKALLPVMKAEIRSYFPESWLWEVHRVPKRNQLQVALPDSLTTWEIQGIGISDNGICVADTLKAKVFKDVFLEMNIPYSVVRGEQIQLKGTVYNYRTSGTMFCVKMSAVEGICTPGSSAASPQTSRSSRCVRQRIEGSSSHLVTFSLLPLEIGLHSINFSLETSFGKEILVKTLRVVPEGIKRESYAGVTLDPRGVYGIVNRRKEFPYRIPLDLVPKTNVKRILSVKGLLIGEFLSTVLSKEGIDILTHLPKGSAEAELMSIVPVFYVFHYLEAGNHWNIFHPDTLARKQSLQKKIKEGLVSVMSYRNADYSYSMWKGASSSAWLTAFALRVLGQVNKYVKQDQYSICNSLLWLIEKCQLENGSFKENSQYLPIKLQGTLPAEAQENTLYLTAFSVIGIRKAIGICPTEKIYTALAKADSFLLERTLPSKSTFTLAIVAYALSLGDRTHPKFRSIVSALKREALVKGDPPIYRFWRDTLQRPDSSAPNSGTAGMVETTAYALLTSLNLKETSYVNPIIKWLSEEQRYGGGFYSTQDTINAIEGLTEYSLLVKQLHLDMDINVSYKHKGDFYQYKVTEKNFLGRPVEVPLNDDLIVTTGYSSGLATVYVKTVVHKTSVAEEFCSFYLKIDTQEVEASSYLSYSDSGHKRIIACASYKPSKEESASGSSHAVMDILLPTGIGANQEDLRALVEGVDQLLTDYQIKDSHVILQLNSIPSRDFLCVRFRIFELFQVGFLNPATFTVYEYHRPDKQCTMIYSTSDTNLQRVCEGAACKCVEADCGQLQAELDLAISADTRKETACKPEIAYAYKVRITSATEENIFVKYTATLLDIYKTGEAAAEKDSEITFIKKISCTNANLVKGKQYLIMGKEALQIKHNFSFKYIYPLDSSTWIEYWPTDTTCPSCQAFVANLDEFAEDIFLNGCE
Method: as §7, with “rat” for “human”, “ug/mL” for “μg/mL”

[6] = tested on: antibody-sensitized sheep red blood cells; assay: Classical pathway haemolysis assay; type: cell-based; conditions: normal human sera; result in words
Method: as §1

[7] = In vivo pharmacokinetics after intravenous bolus; conditions: rat, plasma; 1 mg/kg intravenous; male Sprague-Dawley rats; read-out: plasma clearance [C1p]
Method: Plasma pharmacokinetics was studied for each peptide in male Sprague-Dawley rats of a body weight between 324 and 425 g. Drug was administered intravenously via the tail vein. […] Blood samples were taken at 7 minutes, 15 minutes, 30 minutes, followed by 1, 2, 4, 8 and 24 hours. Blood was collected into Li Heparin tubes and spun to prepare plasma samples for bioanalysis. Bioanalytical data was analysed on an individual animal basis using Pharsight Phoenix 64 Build 8.1. Non-compartmental analysis was conducted and mean pharmacokinetic parameters for each drug calculated.

[8] = relative to unmodified peptide
[9] = read-out: mean Koff, multi-cycle kinetics, n = 3 experiments
[10] = read-out: mean Kon, multi-cycle kinetics, n = 3 experiments

Molecule	inhibition of haemolysis, AP [1]	inhibition of AP, C5b deposition [2]	inhibition of CP, C5b deposition [3]	mean stoichiometric ratio ([4]; n = 3 experiments)	binding to human C5 [4]	cross reactivity with rat C5 protein [5]	koff [4, 9]	kon [4, 10]	inhibition of haemolysis, CP [6]	further results
CC[C@H](C)[C@@H]1NC(=O)[C@H](C)NC(=O)[C@H](C(C)C)NC(=O)CNC(=O)[C@@H]2CSSC[C@@H](C(=O)NCC(=O)N[C@@H](Cc3c[nH]cn3)C(=O)N[C@@H](Cc3ccccc3)C(=O)N[C@@H](CC(C)C)C(=O)N[C@@H](CC(N)=O)C(=O)N[C@@H](CO)C(=O)NCC(=O)N3CCC[C@H]3C(=O)N[C@@H](CC(N)=O)C(=O)N[C@H](C(=O)N[C@@H](CO)C(=O)N3CCC[C@H]3C(=O)N[C@@H](Cc3ccc(O)cc3)C(=O)N[C@H](C(=O)N[C@@H](CO)C(=O)N[C@H](C(=O)O)[C@@H](C)O)C(C)C)[C@@H](C)CC)NC(=O)CNC(=O)[C@H](Cc3c[nH]c4ccccc34)NC(=O)[C@H](CCCNC(=N)N)NC(=O)CNC(=O)[C@H](CSSC[C@H](NC(=O)[C@@H](N)[C@@H](C)O)C(=O)N3CCC[C@H]3C(=O)N[C@@H](CCC(=O)O)C(=O)NCC(=O)N[C@@H](Cc3c[nH]c4ccccc34)C(=O)N[C@@H](CO)C(=O)N[C@@H](CCC(=O)O)C(=O)N2)NC(=O)[C@H](CCC(=O)O)NC(=O)[C@H](Cc2ccc(O)cc2)NC(=O)CNC(=O)[C@H](Cc2ccc(O)cc2)NC1=O [K92chemFE] (H-TCPEGWSECGVAIYGYECGRWGCGHFLNSGPNISPYVST-OH; disulfide 2-18, 9-23)	active solely in the AP-driven haemolysis assay	partially inhibited	modest, dose dependent enhancement	0.40						koff ([4]; multi-cycle kinetics, n = 3 experiments, read-out: mean Koff): 0.000101 s⁻¹; kon ([4]; multi-cycle kinetics, n = 3 experiments, read-out: mean Kon): 283000 M⁻¹ s⁻¹
CSCC[C@@H]1NC(=O)[C@@H]2CCCN2C(=O)[C@@H](NC(=O)[C@@H]2CSSC[C@H](NC(=O)[C@@H](N)CO)C(=O)N3CCC[C@H]3C(=O)N[C@@H](CC(=O)O)C(=O)NCC(=O)N[C@@H](Cc3ccccc3)C(=O)N[C@@H](CO)C(=O)N[C@@H](Cc3ccc(O)cc3)C(=O)N[C@@H](CCCNC(=N)N)C(=O)N[C@@H](CO)C(=O)N[C@@H](Cc3c[nH]c4ccccc34)C(=O)N[C@@H](CC(=O)O)C(=O)N[C@@H](CC(=O)O)C(=O)N[C@@H](Cc3ccccc3)C(=O)N2)CSSC[C@@H](C(=O)N[C@@H](CC(C)C)C(=O)N[C@@H](C)C(=O)N2CCC[C@H]2C(=O)N[C@@H](CCCNC(=N)N)C(=O)N[C@@H](CC(N)=O)C(=O)O)NC(=O)[C@H](CCCNC(=N)N)NC(=O)CNC(=O)[C@H](C(C)C)NC1=O [K149chemFE] (H-SCPDGFSYRSWDDFCCPMVGRCLAPRN-OH; disulfide 2-15, 16-22 (inferred); N-terminus assumed)		non-functional, silent binder	non-functional, silent binder	0.85	equal affinity					binding to C5 ([4]; after reduction and capping of cysteines with iodoacetamide (loss of disulphide bonds)): entirely abrogated binding; Kd ([4]; multi-cycle kinetics, n = 3 experiments, read-out: mean KD): 5.57 nM
GCPPGYKSGVDCSPGSECKWGCYAVDGRRYGGYGADSGVGS-OH (disulfide 2-18, 12-22) [K57chemFE]	potent and fully efficacious inhibitor	potent and fully efficacious inhibitor	potent and fully efficacious inhibitor	0.65		specific for human C5	0.000579 s⁻¹	260000 M⁻¹ s⁻¹	potent and fully efficacious inhibitor	
K8 chemFE cyclic: cyclic peptide from head-to-tail cyclisation of the K8chemFE knob domain (cyclo(VCPDGFNWGYGCAAGSSRFCTRHDWCCYDERADSHTYGFCTGNRV); also: disulphides formed by free energy method, pairing not given here)	functionally active complement inhibitor				bound human C5				functionally active complement inhibitor	
Palmitoyl-GCPPGYKSGVDCSPGSECKWGCYAVDGRRYGGYGADSGVGS-OH (disulfide 2-18, 12-22) [K57 chemFE-Palmitoyl]					unaffected					clearance [7]: 0.8 mL/min/kg; solubility [8]: reduced solubility
VCPDGFNWGYGCAAGSSRFCTRHDWCCYDERADSHTYGFCTGNRV-OH (disulfide 2-26, 12-40, 20-27) [K8chemFE]		partial inhibitor	partial inhibitor	0.25		tightly bound	0.000385 s⁻¹	70500 M⁻¹ s⁻¹		cross reactivity with rat C5 protein ([5]; listed as K8chem): cross reactive
